# Patent US9221796B2, “Selective NR2B antagonists” (BRISTOL-MYERS SQUIBB COMPANY, priority 2014, dated 2015)
# Biological target: NR2B-subtype NMDA receptors (Rattus norvegicus (Rat), UniProt P35439+Q00960)
# Assay: Radioligand binding assay (3H Ro 25-6981 competition, forebrain membranes)
# Settings: 3H Ro 25-6981 (4 nM), read-out: NR2B Binding Ki
# Protocol: Radioligand Binding Assay. […] Buchy D; Klingelschmidt A; Messer J; Bleuel Z; Kemp J A; Richards J G. […] Thawed brains were homogenized using a Dounce homogenizer and centrifuged at 48000×g for 20 min. The pellet was resuspended in cold buffer and homogenized again using a Dounce homogenizer. […] After incubation for 1 hr at room temperature, the membrane bound radioligand was harvested on to GF/B filter plates (treated with 0.5% PEI for 1 hr at room temperature). The filter plates were dried at 50° C. for 20 mins, incubated with microscint 20 for 10 minutes and finally, the counts were read on TopCount (Perkin Elmer). […] CPM values were converted to % inhibition and the concentration response curves were plotted using custom made software. Each experiment was repeated at least twice to obtain the final binding Ki values for experimental compounds.
# Chain of NR2B-subtype NMDA receptors (Q00960 27-1482, other chains not shown): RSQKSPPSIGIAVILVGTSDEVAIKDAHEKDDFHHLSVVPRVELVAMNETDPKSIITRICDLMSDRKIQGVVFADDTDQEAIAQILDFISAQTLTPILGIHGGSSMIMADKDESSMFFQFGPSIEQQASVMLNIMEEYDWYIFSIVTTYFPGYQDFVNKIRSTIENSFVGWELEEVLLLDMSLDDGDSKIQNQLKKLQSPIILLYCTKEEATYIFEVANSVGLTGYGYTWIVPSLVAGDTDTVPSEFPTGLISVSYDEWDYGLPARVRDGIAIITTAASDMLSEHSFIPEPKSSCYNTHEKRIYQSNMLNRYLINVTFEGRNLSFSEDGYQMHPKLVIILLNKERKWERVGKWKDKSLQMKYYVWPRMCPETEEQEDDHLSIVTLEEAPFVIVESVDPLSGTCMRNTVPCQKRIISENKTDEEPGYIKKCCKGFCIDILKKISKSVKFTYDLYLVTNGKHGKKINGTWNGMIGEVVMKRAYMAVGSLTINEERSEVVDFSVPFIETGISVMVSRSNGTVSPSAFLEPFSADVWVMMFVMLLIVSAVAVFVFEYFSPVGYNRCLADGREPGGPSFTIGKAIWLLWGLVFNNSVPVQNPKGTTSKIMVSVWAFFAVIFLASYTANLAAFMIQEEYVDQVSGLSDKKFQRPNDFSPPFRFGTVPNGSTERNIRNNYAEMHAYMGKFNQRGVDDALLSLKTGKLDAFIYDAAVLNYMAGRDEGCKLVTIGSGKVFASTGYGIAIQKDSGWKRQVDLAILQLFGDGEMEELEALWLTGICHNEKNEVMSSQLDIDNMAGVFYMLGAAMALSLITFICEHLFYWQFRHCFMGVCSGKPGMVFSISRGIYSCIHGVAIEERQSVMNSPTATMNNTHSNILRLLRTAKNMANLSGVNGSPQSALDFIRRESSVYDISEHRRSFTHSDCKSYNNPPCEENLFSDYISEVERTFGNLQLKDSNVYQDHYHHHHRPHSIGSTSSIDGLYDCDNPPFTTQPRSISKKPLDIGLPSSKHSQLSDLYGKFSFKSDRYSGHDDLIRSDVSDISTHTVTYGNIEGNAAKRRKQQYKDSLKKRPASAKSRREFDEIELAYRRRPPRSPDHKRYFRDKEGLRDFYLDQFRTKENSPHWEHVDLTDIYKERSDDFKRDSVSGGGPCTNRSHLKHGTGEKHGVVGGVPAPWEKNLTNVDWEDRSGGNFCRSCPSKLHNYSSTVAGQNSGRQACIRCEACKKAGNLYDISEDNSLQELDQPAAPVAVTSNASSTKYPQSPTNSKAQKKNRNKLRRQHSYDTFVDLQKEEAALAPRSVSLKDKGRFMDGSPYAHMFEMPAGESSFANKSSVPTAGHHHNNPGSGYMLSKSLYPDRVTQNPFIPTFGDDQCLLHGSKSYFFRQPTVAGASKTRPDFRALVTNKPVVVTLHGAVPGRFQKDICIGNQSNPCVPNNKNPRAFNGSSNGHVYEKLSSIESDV
row,SMILES,Ki [µM]
1,"O=C1[C@@H](N2CC[C@H](c3ccc(O)cc3)[C@@H](F)C2)CCN1Cc1ccc(C(F)(F)F)cc1 [Example 87, (S)-3-((3R,4R)-3-Fluoro-4-(4-hydroxyphenyl)piperidin-1-yl)-1-(4-(trifluoromethyl)benzyl)-pyrrolidin-2-one]",0.54
2,"O=C1C(N2CCC(c3ccc(O)cc3)C(F)(F)C2)CCN1Cc1ccc(Cl)c(Cl)c1 (stereo not shown) [Example 109, 1-(3,4-Dichlorobenzyl)-3-(3,3-difluoro-4-(4-hydroxyphenyl)piperidin-1-yl)pyrrolidin-2-one]",0.29
3,"O=C1C(N2CC(c3ccc(O)cc3)C2)CCN1Cc1ccc(F)cc1 (stereo not shown) [Example 11, 1-(4-Fluorobenzyl)-3-(3-(4-hydroxyphenyl)azetidin-1-yl)pyrrolidin-2-one]",0.51
4,"O=C1C(N2CC[C@@H](c3ccc(O)cc3)[C@H](F)C2)CCN1Cc1ccc(F)c(Cl)c1 (stereo partly drawn) [Example 73, 1-(3-Chloro-4-fluorobenzyl)-3-((3S,4S)-3-fluoro-4-(4-hydroxyphenyl)piperidin-1-yl)pyrrolidin-2-one]",0.33
5,"O=C1C(N2CCC(c3ccc(O)cc3)CC2)CCCN1Cc1ccccc1 (single isomer, unassigned) [Example 41a, 1′-Benzyl-4-(4-hydroxyphenyl)-[1,3′-bipiperidin]-2′-one]",0.99
6,"O=C1[C@@H](N2CCC(c3ccc(O)cc3)CC2)CCN1Cc1ccc(O)cc1 [Example 25a, (S)-1-(4-Hydroxybenzyl)-3-(4-(4-hydroxyphenyl)piperidin-1-yl)pyrrolidin-2-one]",1.2
7,"O=C1C(N2CC(c3ccc(O)cc3)C2)CCN1Cc1ccc(F)c(F)c1 (stereo not shown) [Example 10, 1-(3,4-Difluorobenzyl)-3-(3-(4-hydroxyphenyl)azetidin-1-yl)pyrrolidin-2-one]",1.02
8,"Cc1ccc(N2CC[C@H](N3CC[C@H](c4ccc(O)cc4)[C@@H](F)C3)C2=O)cc1F [Example 49, P-1, (S)-3-((3R,4R)-3-fluoro-4-(4-hydroxyphenyl)piperidin-1-yl)-1-(3-fluoro-4-methylphenyl)pyrrolidin-2-one]",0.42
9,"O=C1C(N2CCC(c3ccc(O)cc3)C(F)(F)C2)CCN1Cc1ccc(F)c(Cl)c1 (stereo not shown) [Example 100, 1-(3-Chloro-4-fluorobenzyl)-3-(3,3-difluoro-4-(4-hydroxyphenyl)piperidin-1-yl)pyrrolidin-2-one]",0.57

# Molecules with a lower Ki, results first:
row,Ki [µM],SMILES
1,0.0027,"Cc1ccc(CN2CC[C@@H](N3CC[C@@H](c4ccc(O)c(F)c4)[C@H](F)C3)C2=O)cc1 [Example 115, (R)-3-((3S,4S)-3-fluoro-4-(3-fluoro-4-hydroxyphenyl)piperidin-1-yl)-1-(4-methylbenzyl)pyrrolidin-2-one]"
2,0.011,"O=C1[C@H](N2CC[C@@H](c3ccc(O)cc3)[C@H](F)C2)CCN1Cc1ccc(F)cc1 [Example 48, P-3]"
3,0.081,"Cc1ccccc1CN1CCC(N2CC[C@@H](c3ccc(O)cc3)[C@H](F)C2)C1=O (stereo partly drawn) [Example 59, 3-((3S,4S)-3-Fluoro-4-(4-hydroxyphenyl)piperidin-1-yl)-1-(2-methylbenzyl)pyrrolidin-2-one]"
4,0.13,"Cc1cccc(CN2CCC(N3CCC(c4ccc(O)cc4)C(F)(F)C3)C2=O)c1 (stereo not shown) [Example 104, 3-(3,3-Difluoro-4-(4-hydroxyphenyl)piperidin-1-yl)-1-(3-methylbenzyl)pyrrolidin-2-one]"
5,0.18,"O=C1C(N2CC[C@@H](c3ccc(O)cc3)[C@H](F)C2)CCN1Cc1ccc(Cl)c(Cl)c1 (stereo partly drawn) [Example 70, 1-(3,4-Dichlorobenzyl)-3-((3S,4S)-3-fluoro-4-(4-hydroxyphenyl)piperidin-1-yl)pyrrolidin-2-one]"
6,0.015,"O=C1[C@H](N2CCC(c3ccc(O)cc3)C(F)(F)C2)CCN1Cc1ccc(F)c(F)c1 (single isomer, unassigned) [Example 108, P-2]"
7,0.018,"O=C1[C@H](N2CCC(c3ccc(O)cc3)C(F)(F)C2)CCN1Cc1ccc(Cl)c(F)c1 (stereo partly drawn) [Example 96, P-2, (3R)-1-(4-Chloro-3-fluorobenzyl)-3-(3,3-difluoro-4-(4-hydroxyphenyl)piperidin-1-yl)pyrrolidin-2-one]"
